Like-named read-outs stand apart in the source and are kept apart here.
How the values were obtained:
β1-AR = target: T1, β1-AR (Homo sapiens, UniProt P08588); assay: cAMP Gs HTRF assay, inhibition of isoproterenol-stimulated cAMP, affinity by Leff-Dougall equation; format: cell-based; conditions: CHO-K1 cells, approximate EC80 isoproterenol
T1 construct: expressed in transfected cells; host or cells: CHO-K1
Text: When cAMP turnover is reduced by blocking phosphodiesterases with IBMX, cAMP accumulation occurs, and this accumulation is detected in the cAMP Gs Homogenous Time Resolved Fluorescence (HTRF) assay. The HTRF assay is a competitive inhibition assay. Endogenous cAMP, produced by stimulated cells, competes with and prevents FRET between acceptor-labeled cAMP and donor-labeled cAMP antibody. Increases in endogenous cAMP therefore cause a reduction in HTRF signal, expressed as a ratio of FRET acceptor fluorescence and FRET donor fluorescence.
cAMP HTRF measurements were performed broadly according to the cAMP Gs dynamic kit protocol (Cisbio/Perkin Elmer, 62AM4PEC). Compounds were prepared at 2× final concentration to accommodate the subsequent addition of cells. […] Test compounds were serially diluted across the plate by nine 5-fold dilutions to generate a 10-point dose-response curve.
384 well plates containing compound were covered and stored at room temperature until resuspended cell addition.
D2-labelled cAMP (Acceptor) and Europium cryptate labelled cAMP antibody (Donor) (Cisbio/Perkin Elmer 62AM4PEC) were dissolved in water following the manufacturer's instructions, aliquoted and stored at −80° C.
CHO-K1 cells expressing exogenous β-ARs were resuspended using methods as described above, were recovered from flasks using PBS […] (Caisson PBL02) and centrifuged at 250×g for 5 minutes in a 50 ml falcon tube. PBS/versene was removed by aspiration and cells were resuspended in a minimal volume of room temperature 1× stimulation buffer+IBMX prior to cell counting. 5 ul cells of correct density (2000 cells/well) were added to compound in assay plates using a Multidrop Combi (Thermofisher). Cells and compounds were covered with a clear plate seal (Axygen PCR-SP) and incubated at 37° C., 5% CO2 for 30 minutes. cAMP accumulation was then stopped by adding 10 μL HTRF detection reagents in lysis buffer using the Multidrop Combi, plates were covered with an aluminum plate seal (Axygen PCR-AS-600) and agitated (Heidolph Titramax 1000, setting 600) for at least 2 hours, to allow competition between D2-cAMP and stimulated cAMP for the donor-labelled cAMP antibody to reach equilibrium.
HTRF was detected using a Tecan Spark plate reader, operated using SparkControl™ software, using the TR fluorescence intensity setting. Both donor and acceptor was excited at 320 nm, detected after 100 μs delay, with 400 μs integration time, and 50 flashes per read. […] To standardize reads across experiments, camera gain was manually set to 120 for donor detection, and 140 for acceptor detection.

[1] = In vivo PK in rats (IV and PO); conditions: male SD rat
Experimental: The rat pharmacokinetics studies of exemplary compounds NI-C and NI-D were conducted with male SD rats. These rats were typically about 6-8 weeks old, weighing 200 g to 300 g. Animals were fasted overnight and have free access to food 4 hours after dosing. A required volume of vehicle was added to reach the target concentration of the test article and vehicle component to prepare for the dosing. The dosing vehicle was PEG400 or 30% PEG400 in saline for IV, or 0.5% methylcellulose in water for PO. For IV dosing, the animals were administered intravenously via tail vein. For PO dosing, the animals were administered via oral gavage. After dosing, blood sample was collected (~0.2 mL per time point) through jugular vein or heart puncture. Blood of each sample was transferred into plastic micro centrifuge tubes containing EDTA-K2. Collection tubes with blood samples and anticoagulant were inverted several times for proper mixing of the tube contents and then placed on wet ice. The blood samples were centrifuged at 2000 g for 5 minutes at 4° C. to obtain plasma which was stored in a freezer at −75±15° C. prior to analysis. Samples were analyzed using LC-MS/MS. WinNonlin were used for pharmacokinetic calculations.

OATP1A2 [2] = target: T2, OATP1A2 (Homo sapiens, UniProt P46721); assay: Uptake in OATP1A2-transfected cells versus control cells; conditions: 2-fold threshold
T2 sequence (P46721 1-670): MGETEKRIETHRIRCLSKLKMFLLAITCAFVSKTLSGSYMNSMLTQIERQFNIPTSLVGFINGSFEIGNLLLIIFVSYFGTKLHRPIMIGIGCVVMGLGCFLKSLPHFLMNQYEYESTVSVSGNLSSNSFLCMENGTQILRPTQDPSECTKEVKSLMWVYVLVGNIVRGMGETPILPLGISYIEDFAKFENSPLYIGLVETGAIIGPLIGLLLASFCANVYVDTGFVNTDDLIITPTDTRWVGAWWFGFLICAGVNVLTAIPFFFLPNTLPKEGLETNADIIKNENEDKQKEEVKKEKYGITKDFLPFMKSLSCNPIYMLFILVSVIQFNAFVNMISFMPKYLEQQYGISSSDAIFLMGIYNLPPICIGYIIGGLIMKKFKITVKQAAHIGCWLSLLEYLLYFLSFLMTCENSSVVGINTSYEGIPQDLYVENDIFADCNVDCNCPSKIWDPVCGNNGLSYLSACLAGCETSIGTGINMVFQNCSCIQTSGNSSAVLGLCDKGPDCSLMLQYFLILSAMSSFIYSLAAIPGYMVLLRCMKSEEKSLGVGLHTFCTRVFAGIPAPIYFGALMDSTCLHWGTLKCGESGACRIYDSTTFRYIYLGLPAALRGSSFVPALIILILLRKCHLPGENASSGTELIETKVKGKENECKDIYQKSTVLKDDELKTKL

β2-AR [3] = target: T3, β2-AR (Homo sapiens, UniProt P07550); assay: Compound 03-5 β2-AR occupancy calculated with the Gaddum equation from measured plasma and CSF concentrations; conditions: alone, no nadolol or isomer competition
β2-AR [4] = target: T3, β2-AR; assay: Radioligand binding; conditions: read-out: β2-AR affinity by radioligand binding
Text: In contrast, NI-C blocks the fraction of peripheral β2-AR receptors bound by Compound 03-5 to 0.02 while maintaining the fraction of central β2-AR receptors bound by Compound 03-5 to 0.21.

clinical = conditions: human, CSF/plasma
[5] = CSF and plasma concentrations in healthy human subjects dosed with Compound 03-5 and nadolol; conditions: for CSF/Plasma ratio: Day 6; for Concentration in CSF / Concentration in plasma: Day 6, 2 hrs after Compound 03-5 (15 mg), nadolol 20 mg
OATP1A2 [6] = target: T2, OATP1A2

T3 sequence (P07550 whole entry): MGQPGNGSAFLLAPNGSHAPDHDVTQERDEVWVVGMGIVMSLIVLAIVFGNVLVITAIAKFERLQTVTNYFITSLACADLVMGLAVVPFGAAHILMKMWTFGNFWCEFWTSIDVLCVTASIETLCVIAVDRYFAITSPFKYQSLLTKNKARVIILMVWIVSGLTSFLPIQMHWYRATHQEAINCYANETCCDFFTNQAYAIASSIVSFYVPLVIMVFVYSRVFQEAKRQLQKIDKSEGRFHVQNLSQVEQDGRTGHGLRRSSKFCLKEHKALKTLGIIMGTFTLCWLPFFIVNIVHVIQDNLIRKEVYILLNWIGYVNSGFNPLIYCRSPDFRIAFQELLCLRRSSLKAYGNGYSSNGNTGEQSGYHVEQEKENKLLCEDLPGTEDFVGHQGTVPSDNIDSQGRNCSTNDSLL
T1 sequence (P08588 whole entry): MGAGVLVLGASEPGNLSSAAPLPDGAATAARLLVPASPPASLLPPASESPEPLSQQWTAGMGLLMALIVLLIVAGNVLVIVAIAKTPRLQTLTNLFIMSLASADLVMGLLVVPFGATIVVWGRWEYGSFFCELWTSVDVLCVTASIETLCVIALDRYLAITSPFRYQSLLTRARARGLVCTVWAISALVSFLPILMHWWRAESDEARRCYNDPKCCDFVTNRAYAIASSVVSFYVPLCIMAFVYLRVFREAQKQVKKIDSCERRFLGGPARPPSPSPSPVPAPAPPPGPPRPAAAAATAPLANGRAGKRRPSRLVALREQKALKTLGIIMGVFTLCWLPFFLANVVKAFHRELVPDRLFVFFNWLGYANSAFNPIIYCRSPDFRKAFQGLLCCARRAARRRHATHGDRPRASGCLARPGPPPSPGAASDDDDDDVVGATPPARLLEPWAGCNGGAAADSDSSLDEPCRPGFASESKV

CC(C)(C)NCC(O)COc1cccc2c1CC(O)C(O)C2 (single isomer, unassigned) [NI-A, (RSR)-nadolol]
Ki (β1-AR): 891 nM | pKi (β1-AR): 6.05 ± 0.10

CC(C)(C)NCC(O)COc1cccc2c1CC(O)C(O)C2 (single isomer, unassigned) [NI-B, (RRS)-nadolol]
Ki (β1-AR): 354 nM | pKi (β1-AR): 6.45 ± 0.10

CC(C)(C)NCC(O)COc1cccc2c1CC(O)C(O)C2 (single isomer, unassigned) [NI-C, (SRS)-nadolol]
AUCInf ([1]; 1 mg/kg iv): 488 ng·h/mL | C0 ([1]; 1 mg/kg iv): 1142 ng/mL | CL ([1]; 1 mg/kg iv): 34.5 mL/min/kg | T1/2 ([1]; 1 mg/kg iv): 2.87 h | Vss ([1]; 1 mg/kg iv): 4.74 L/kg | AUCInf ([1]; 5 mg/kg po): 200 ng·h/mL | Cmax ([1]; 5 mg/kg po): 37.9 ng/mL | MRT ([1]; 5 mg/kg po): 4.12 h | Tmax ([1]; 5 mg/kg po): 1.08 h | Bioavailability ([1]; 5 mg/kg po vs 1 mg/kg iv): 8.21% | Ki (β1-AR): 4.6 nM | pKi (β1-AR): 8.34 ± 0.12

CC(C)(C)NCC(O)COc1cccc2c1CC(O)C(O)C2 (single isomer, unassigned) [NI-D, (SSR)-nadolol]
Ki (β1-AR): 2.6 nM | pKi (β1-AR): 8.58 ± 0.18

CC(C)(C)NCC(O)COc1cccc2c1CC(O)C(O)C2 (centres unmarked) [(SRS)-NADOLOL]
Substrate for OATP1A2 (OATP1A2 [2]): appear to be substrates for OATP1A2

CC(C)(C)NCC(O)COc1cccc2c1CC(O)C(O)C2 (centres unmarked) [(SSR)-NADOLOL]
Substrate for OATP1A2 (OATP1A2 [2]): does not appear to be a substrate for OATP1A2

CC(C)(C)NC[C@H](O)c1cccc(C#N)n1 [Compound 03-5]
Fraction of β2-AR receptors bound by Compound 03-5 in the CSF (β2-AR [3]): 0.29 | Fraction of β2-AR receptors bound by Compound 03-5 in the periphery (β2-AR [3]): 0.46 | Ki (β2-AR [4]): 374 nM | Kp (clinical): 0.47 | Kp (clinical; oral): 0.42 | CSF/Plasma ratio ([5]; Average of 4 subjects): 47% | Concentration in CSF ([5]; Average of 4 subjects): 34.675 ng/mL | Concentration in plasma ([5]; Average of 4 subjects): 74.25 ng/mL | Concentration in CSF ([5]; Subject A): 37 ng/mL | Concentration in plasma ([5]; Subject A): 87.4 ng/mL | CSF/Plasma ratio ([5]; Subject B): 44% | Concentration in CSF ([5]; Subject B): 27.1 ng/mL | Concentration in plasma ([5]; Subject B): 61.2 ng/mL | CSF/Plasma ratio ([5]; Subject C): 42% | Concentration in CSF ([5]; Subject C): 30.3 ng/mL | Concentration in plasma ([5]; Subject C): 72.9 ng/mL | CSF/Plasma ratio ([5]; Subject D): 59% | Concentration in CSF ([5]; Subject D): 44.3 ng/mL | Concentration in plasma ([5]; Subject D): 75.5 ng/mL

CC(C)(C)NCC(O)COc1cccc2c1CC(O)C(O)C2 (centres unmarked) [Nadolol, reference compound]
Substrate for OATP1A2 (OATP1A2 [6]): appear to be substrates for OATP1A2 | Ki (β1-AR): 5.5 nM

— patent US20260232607A1, “COMPOSITIONS AND METHODS INVOLVING ISOLATED COMPOUNDS” (CuraSen Therapeutics, Inc., priority 2022, published 2026)
